Results as given in patent publication US7875601B2, “Cancer treatment with epothilones” (Novartis AG, priority 1998, dated 2011).
Marks after values point to notes of the source that are not given here.

Columns and labels:
[1] = test system: human HCT-15 colon carcinoma; test: Antitumor effect against s.c. transplanted HCT-15 tumors; type: in vivo, female BALB/c nude mice
From the text: Human colorectal adenocarcinoma cell line HCT-15 (ATCC CCL 225) is from the American Type Culture Collection (Rockville, Md., USA), and the cells are cultivated in vitro as recommended by the supplier. HCT-15 is an epithelial-like cell line. (Cancer Res. 39: 1020-25 [1979]) that is multi-drug resistant by virtue of over-expression of P-glycoprotein (P-gp, gp170, MDR-1;Anticancer Res. 11: 1309-12 [1991]; J. Biol. Chem. 264: 18031-40 [1989]; Int. J. Cancer 1991; 49: 696-703 [1991]) and glutathione-dependent resistance mechanisms (Int. J. Cancer 1991; 49: 688-95 [1991]).
(§1) Female or male BALB/c nu/nu (nude) mice are kept under sterile conditions (10 to 12 mice per Type III cage) with free access to food and water. Mice weigh between 20 and 25 grams at the time of tumor implantation. Tumors are established by subcutaneous injection of cells (minimum 2×10^6 cells in 100 μl PBS or medium) in carrier mice (4-8 mice per cell line). The resulting tumors are serially passaged for a minimum of three consecutive transplantations prior to start of treatment. Tumor fragments (approx. 25 mg) are implanted s.c. into the left flank of animals with a 13-gauge trocar needle while the mice are exposed to Forene (Abbott, Switzerland) anesthesia.
(§2) Tumor growth and body weights are monitored once or twice weekly. All treatments are administered intravenously (i.v.) and are initiated when a mean tumor volume of approximately 100 to 250 mm^3 is attained, depending upon the tumor type. Tumor volumes are determined using the formula […] (see Cancer Chemother. Pharmacol. 24:148-154, [1989]). Treatments with epothilone B vary the dose and the frequency of administration. Comparator agents are administered according to previously determined optimal treatment regimens. In addition to presenting changes in tumor volumes over the course of treatment, antitumor activity is expressed as T/C % (mean increase of tumor volumes of treated animals divided by the mean increase of tumor volumes of control animals multiplied by 100). Tumor. regression (%) represents the smallest mean tumor volume compared to the mean tumor volume at the start of treatment, according to the formula Regression (%)=(1−Vend/Vstart)×100(Vend=final mean tumor volume, Vstart=mean tumor volume at the start of treatment. Any animals in which the tumor has reached a size exceeding approximately 1.5 to 2.5 cm^3 are sacrificed. Details can be found below.
Tumor volumes are used as the primary indicator of activity of antitumor agents used alone or in combination, and changes in body weights are measured as an indicator of treatment tolerability.

[2] = test system: human COLO 205 colon tumors; type: in vivo, female BALB/c nude mice; details: 75 mg/kg, day 32
Experimental: as §1, §2

KB-8511 = KB-8511 vs KB-31; cited from earlier work
[3] = test system: KB-8511 (Epidermoid, MDR); test: Antiproliferative assay, KB-8511; type: cell-based, human; details: KB-8511 vs parental line
Experimental: The human epidermal (mouth) carcinoma cell line KB-8511 (a P-gp over-expressing cell line derived from the epidermoid (mouth) KB-31 carcinoma cell line) is obtained from Dr. R. M. Baker, Roswell Park Memorial Institute (Buffalo, N.Y., USA) (for description see Akiyama et al., Somat. Cell. Mol. Genetics 11, 117-126 (1985) and Fojo A., et al., Cancer Res. 45, 3002-3007 (1985)) and is cultured as previously described (Meyer, T., et al., Int. J. Cancer 43 851-856 (1989)).
Antiproliferative assays are performed as previously described (Int. J. Cancer 43, 851-6 (1989)). Briefly, cells are seeded at 1.5×10^3 cells/well into 96-well microtiter plates and incubated overnight. Compounds are added in serial dilutions on day 1. The plates are then incubated for an additional 2 to 5 days, allowing for at least one cell doubling (cell line dependent), after which the cells are fixed with 3.3% v/v glutaraldehyde, washed with water and stained with 0.05% w/v methylene blue. After washing, the dye is eluted with 3% v/v HCl and the optical density measured at 665 nm with a SpectraMax 340 (Bucherer, Basel, Switzerland). IC50 values are determined by a computerized system (SoftPro, Bucherer, Basel, Switzerland) using the formula (OD test−OD start)/(OD control−OD start)×100. IC50 is defined as the drug concentration which leads to 50% of cells per well compared to control cultures (100%) at the end of incubation period.

[4] = 75 mg/kg, i.v., on days 14 and 21
[5] = 75 mg/kg, i.v., on days 14 and 21, mean ± SEM

With `O=c1[nH]cc(F)c(=O)[nH]1` [5-fluorouracil, reference compound] the Regression [1, 4] was “none”, the T/C [1, 4] was 88% and the “% Body Weight Change” value [1, 5] was 9 ± 4%. For the same compound, the “D Body Weight” value [1, 5] was 2.0 ± 0.7 g, the “D Tumor Volume (mm^3)” value [1, 5] was 1654 ± 824 mm^3 and the deaths ([1]; two 75 mg/kg administrations) was 50%. The T/C ([2]; i.v. every 7 days (days 14, 21, 28)) was 18%, the Regression ([2]; i.v. every 7 days) was “none” and the “Δ Tumor Volume (mm^3)” value ([2]; i.v. every 7 days) was 62 ± 12 mm^3.
For `COc1cc2c(c(OC)c1OC)-c1ccc(OC)c(=O)cc1[C@@H](NC(C)=O)CC2` [colchicine], the “relative resistance when compared with the KB-31 cells” value (KB-8511) is listed as roughly 40 fold.
In the case of `CC(=O)O[C@H]1C(=O)[C@@]2(C)[C@H]([C@H](OC(=O)c3ccccc3)[C@]3(O)C[C@H](OC(=O)[C@H](O)[C@@H](NC(=O)c4ccccc4)c4ccccc4)C(C)=C1C3(C)C)[C@]1(OC(C)=O)CO[C@@H]1C[C@@H]2O` [paclitaxel, reference compound], the “relative resistance, IC50 (resistant line)/IC50 (parental line)” value [3] is reported as “(343)^a”.
